Laboratory results from patent publication US20160151369A1, “SUBSTITUTED 3-PHENYLPROPYLAMINE DERIVATIVES FOR THE TREATMENT OF OPHTHALMIC DISEASES AND DISORDERS” (ACUCELA INC., priority 2013, published 2016).
Like-named read-outs stand apart in the source and are kept apart here.

Experiments:
[1] = test system: isomerase (recovery of 11-cis-retinal after bleaching); assay: In vivo murine isomerase assay (Table 3); conditions: Mus musculus, po, mice
Method: The capability of compounds described herein to inhibit isomerase was determined by an in vivo murine isomerase assay. […] The recovery of 11-cis-retinal after bleaching can be used to estimate the activity of isomerase in vivo. Delayed recovery, as represented by lower 11-cis-retinal oxime levels, indicates inhibition of isomerization reaction.
Mice were gavaged with the test compound. […] The mice were allowed to recover 2 hours in the dark. The animals were then sacrificed by carbon dioxide inhalation. Retinoids were extracted from the eye and the regeneration of 11-cis-retinal was assessed at various time intervals.
After the mice were sacrificed, the eyes were immediately removed and placed in liquid nitrogen for storage.
The eyes were placed in 500 μL of bis-tris propane buffer (10 mM, pH˜7.3) and 20 μL of 0.8M hydroxile amine (pH˜7.3). The eyes were cut up into small pieces with small iris scissors and then thoroughly homogenized at 30000 rpm with a mechanical homogenizer (Polytron PT 1300 D) in the tube until no visible tissue remained. 500 μL of methanol and 500 μL of heptane were added to each tube. The tubes were attached to a vortexer so that the contents were mixed thoroughly for 15 minutes in room temperature. The organic phase was separated from the aqueous phase by centrifugation for 10 min at 13K rpm, 4° C. 240 μL of the solution from the top layer (organic phase) was removed and transferred to clean 300 μl glass inserts in HPLC vials using glass pipette and the vials were crimped shut tightly.
The samples were analyzed on an Agilent 1100 HPLC system with normal phase column: SILICA (Beckman Coutlier, dp 5 μm, 4.6 mM×250 mM). […] Loading volume for each sample was 100 μl; detection wavelength was 360 nm. The area under the curve for 11-cis retinal oxime was calculated by Agilent Chemstation software and was recorded manually. Data processing was performed using Prizm software.
Positive control mice (no compound administered) were sacrificed fully dark-adapted and the eye retinoids analyzed. Light (bleached) control mice (no compound administered) were sacrificed and retinoids isolated and analyzed immediately after light treatment.
A time course study was performed to determine the isomerase inhibitory activity of the test compound. […] The animals were then “photo-bleached” (5000 Lux white light for 10 minutes) at 2, 4, 8, 16 and 24 hours after dosing, and returned to darkness to allow recovery of the 11-cis-retinal content of the eyes. Mice were sacrificed 2 hours after bleaching, eyes were enucleated, and retinoid content is analyzed by HPLC.
Recovery control mice (vehicle-only treated) were light-treated and left to recover for 2 hours in the dark before sacrifice and analysis. Light control mice (vehicle only treated) were sacrificed for analysis immediately after photo-bleaching.
An in vivo dose response isomerase inhibition study was performed with test compound. […] Recovery and retinoid analysis were performed as described above. Dark control mice were vehicle-only treated, sacrificed fully dark adapted without light treatment, and analyzed. Recovery control mice and light control mice were included in the study as per the initial phase.

[2] = test system: regeneration of 11-cis-retinal (isomerase); assay: Single dose time course in the in vivo isomerase assay at 0.3 mg/kg (compound A vs compound D); conditions: BALB/c mice, single oral dose 0.3 mg/kg; for inhibition at 0.3 mg/kg: Mus musculus, read-out: Percent Inhibition, 0.3 mg/kg, Avg. % Inhibition
Method: (§1) All test compounds were stored at room temperature, dessicated.
On the day prior to dose administration 3-amino-1-(3-((tetrahydro-2H-pyran-4-yl)methoxy)phenyl)propan-1-ol (compound A) and 3-amino-1-(3-((tetrahydro-2H-pyran- 2-yl)methoxy)phenyl)propan-1-ol (compound D) were weighed into new empty glass vials. The compounds were dissolved in di-water at the concentration of 0.068 mg/mL and stored overnight at 4° C.
52 Male BALB/c mice (Charles River Laboratories) were used for this study. The mice were approximately 8 weeks at the initiation of dosing with an average body weight of 23 grams.
The day prior to dose administration 52 BALB/c mice were placed into a dark room and dark adapted for a minimum of 12 hours prior to dose administration. The mice were maintained in the dark for the duration of the study.
Each animal was removed from its cage and dosed accordingly to the study design in Table 10 (see below). Each animal was administered 0.1 mL of the appropriate test article or vehicle orally using a 1 mL syringe fitted with a 23 gauge oral gavage needle. At 2, 4, 6, 8, 16 or 24 hours following dose administration, animals were removed from the dark and exposed to 5000 Lux white light for 10 minutes to photobleach their eyes. Following the completion of the photobleach the animals were returned to the dark for 2 hours to allow for the regeneration of 11-cis-retinal in the eyes. Two hours after photobleaching each animal was euthanized with carbon dioxide followed by cervical dislocation, in the dark under red light. The light control group was euthanized immediately following photobleaching. Immediately following the cervical dislocation both eyes of each animal were removed and transferred into separate tubes, flash frozen in liquid nitrogen and stored in the dark at −80° C. until processing and analysis.
(§2) All sample processing procedures were performed in the dark under red light.
Extracted samples were analyzed using an Agilent 1100 HPLC system according to the procedure outlined in Table 12 (see below)
(§3) HPLC analysis of the eyes measures the peak area units of the 110 cis-Ral-Oxime_syn. Signal.
(§4) Data analysis % inhibition (drug vs. recovery control). % control (drug vs. light control), and One-way ANOVA (followed by Tukey's Multiple Comparison) were performed using peak area units and performed by Prism software. Data are represented as mean and standard deviation.

[3] = test system: retinal isomerase activity (regeneration of 11-cis-retinal); assay: Comparative in vivo murine isomerase assay, dose response (compound A vs compound D); parameters: species or system BALB/c mice
Method: as §1
On the day prior to dose administration compound A and compound D were weighed into new empty glass vials. The compounds were dissolved in di-water at the concentration of 0.833 mg/mL compound A and 0.892 mg/mL compound D, serially diluted into various concentrations, and stored overnight at 4 OC.
56 Male BALB/c mice (Charles River Laboratories) were used for this study. The mice were approximately 8 weeks at the initiation of dosing with an average body weight of 24 grams.
The day prior to dose administration 56 BALB/c mice were placed into a dark room and dark adapted for a minimum of 12 hours prior to dose administration. The mice were maintained in the dark for the duration of the study.
Each animal was removed from its cage and dosed accordingly to the study design in Table 4 (see below). Each animal was administered 0.1 mL of the appropriate compound or vehicle via oral gavage using a 1 mL syringe fitted with a 23 gauge oral gavage needle. Two hours following dose administration, animals were removed from the dark and exposed to 5000 Lux white light for 10 minutes to photobleach their eyes.
Following the completion of the photobleach the animals were returned to the dark for 2 hours to allow for the regeneration of 11-cis-retinal in the eyes. Two hours after photobleaching each animal was euthanized with carbon dioxide followed by cervical dislocation, in the dark under red light. The light control group was euthanized immediately following photobleaching. Immediately following the cervical dislocation both eyes of each animal were removed and transferred into separate tubes, flash frozen in liquid nitrogen and stored in the dark at −80° C. until processing and analysis.
as §2
Extracted samples were analyzed using an Agilent 1100 HPLC system according to the procedure outlined in Table 6 (see below)
as §3, §4

COC(=O)N1CCC(COc2cccc([C@H](O)CCN)c2)CC1 [Example 17, (R)-Methyl 4-((3-(3-amino-1-hydroxypropyl)phenoxy)methyl)piperidine-1-carboxylate] gave an inhibition at 0.01 mg/kg ([1]; 2 h, Dose 0.01 mg/kg) of 0%, an inhibition at 0.03 mg/kg ([1]; 2 h, Dose 0.03 mg/kg) of -2% and an inhibition at 0.1 mg/kg ([1]; 2 h, Dose 0.1 mg/kg) of 9%. It also gave an inhibition at 0.3 mg/kg ([1]; 2 h, Dose 0.3 mg/kg) of 8%, an inhibition at 1 mg/kg ([1]; 2 h) of 93% and an inhibition at 3 mg/kg ([1]; 2 h, Dose 3 mg/kg) of 100%. It also gave an inhibition at 1 mg/kg ([1]; 4 h) of 88%, an inhibition at 1 mg/kg ([1]; 8 h) of 25% and an inhibition at 1 mg/kg ([1]; 16 h) of -1%. The inhibition at 1 mg/kg ([1]; 24 h) was -8%.

NCC[C@@H](O)c1cccc(NCC2CCOCC2)c1 [Example 23, (R)-3-Amino-1-(3-(((tetrahydro-2H-pyran-4-yl)methyl)amino)phenyl)propan-1-ol] showed an inhibition at 1 mg/kg ([1]; 2 h) of 4.4%, an inhibition at 1 mg/kg ([1]; 4 h) of -1.4% and an inhibition at 1 mg/kg ([1]; 8 h) of 1.5%.

In the case of NCC[C@@H](O)c1cccc(OCC2CCCC(=O)N2)c1 (some centres unmarked) [Example 27], the inhibition at 1 mg/kg ([1]; 4 h) was 9%.

With NCC[C@@H](O)c1cccc(OCc2cccs2)c1 [Example 28, (R)-3-Amino-1-(3-(thiophen-2-ylmethoxy)phenyl)propan-1-ol] the inhibition at 1 mg/kg ([1]; 4 h) was 50.6%.

In the case of NCC[C@@H](O)c1cccc(OCc2ccsc2)c1 [Example 29, (R)-3-Amino-1-(3-(thiophen-3-ylmethoxy)phenyl)propan-1-ol], the inhibition at 1 mg/kg ([1]; 4 h) was 27.4%.

NC/C=C/c1cccc(OCC2CCOCC2)c1 [Example 31, (E)-3-(3-((Tetrahydro-2H-pyran-4-yl)methoxy)phenyl)prop-2-en-1-amine] showed an inhibition at 1 mg/kg ([1]; 2 h) of 11.3%.

NCCCc1cccc(OCC2CCOCC2)c1 [Example 32, 3-(3-((Tetrahydro-2H-pyran-4-yl)methoxy)phenyl)propan-1-amine] was tested, and the inhibition at 1 mg/kg ([1]; 2 h) was 14.2%.

Compound CNCC[C@@H](O)c1cccc(OCC2CCOCC2)c1 [Example 33, (R)-3-(Methylamino)-1-(3-((tetrahydro-2H-pyran-4-yl)methoxy)phenyl)propan-1-ol] has an inhibition at 1 mg/kg ([1]; 2 h) of 65.2%, an inhibition at 1 mg/kg ([1]; 4 h) of 54.5% and an inhibition at 1 mg/kg ([1]; 8 h) of 10.9%. The inhibition at 1 mg/kg ([1]; 16 h) was -0.8% and the inhibition at 1 mg/kg ([1]; 24 h) was 1.8%.

With NCCC(O)c1cccc(OCC2CCCCO2)c1 (centres unmarked) [compound D, reference compound] the “Percent Control, 0.3 mg/kg (average)” value ([2]; Time Point 2 Hours) was 86.8%, the “Percent Control, 0.3 mg/kg (average)” value ([2]; Time Point 4 Hours) was 101.8% and the “Percent Control, 0.3 mg/kg (average)” value ([2]; Time Point 6 Hours) was 87.9%. For the same compound, the “Percent Control, 0.3 mg/kg (average)” value ([2]; Time Point 8 Hours) was 94.6%, the “Percent Control, 0.3 mg/kg (average)” value ([2]; Time Point 16 Hours) was 104.1% and the “Percent Control, 0.3 mg/kg (average)” value ([2]; Time Point 24 Hours) was 89.5%. It also gave an inhibition at 0.3 mg/kg ([2]; Time Point 2 Hours) of 13.2%, an inhibition at 0.3 mg/kg ([2]; Time Point 4 Hours) of -1.8% and an inhibition at 0.3 mg/kg ([2]; Time Point 6 Hours) of 12.1%. It also gave an inhibition at 0.3 mg/kg ([2]; Time Point 8 Hours) of 5.4%, an inhibition at 0.3 mg/kg ([2]; Time Point 16 Hours) of -4.1% and an inhibition at 0.3 mg/kg ([2]; Time Point 24 Hours) of 10.5%. For the same compound, the inhibition at 1 mg/kg ([1]; 4 h) was 57%, the “dose at which 11-cis-retinal recovery was inhibited by 50% (called IC50)” value ([3]; BALB/c mice, single oral dose, 2 h, dose response experiment) was 0.59 mg/kg and the inhibition at 0.03 mg/kg ([3]; Mus musculus, po, 2 h, BALB/c mice, single oral dose 0.03 mg/kg, bleach 2 h after dose, drug vs. recovery control, read-out: Percent Inhibition at 2 Hours, Avg. % Inhibition) was -5.3%. For the same compound, the inhibition at 0.1 mg/kg ([3]; Mus musculus, po, 2 h, BALB/c mice, single oral dose 0.1 mg/kg, bleach 2 h after dose, drug vs. recovery control, read-out: Percent Inhibition at 2 Hours, Avg. % Inhibition) was -23.9%, the inhibition at 0.3 mg/kg ([3]; Mus musculus, po, 2 h, BALB/c mice, single oral dose 0.3 mg/kg, bleach 2 h after dose, drug vs. recovery control, read-out: Percent Inhibition at 2 Hours, Avg. % Inhibition) was -2.1% and the inhibition at 0.5 mg/kg ([3]; Mus musculus, po, 2 h, BALB/c mice, single oral dose 0.5 mg/kg, bleach 2 h after dose, drug vs. recovery control, read-out: Percent Inhibition at 2 Hours, Avg. % Inhibition) was 41.4%. It also gave an inhibition at 1 mg/kg ([3]; Mus musculus, po, 2 h, BALB/c mice, single oral dose 1 mg/kg, bleach 2 h after dose, drug vs. recovery control, read-out: Percent Inhibition at 2 Hours, Avg. % Inhibition) of 70.2%, an inhibition at 3 mg/kg ([3]; Mus musculus, po, 2 h, BALB/c mice, single oral dose 3 mg/kg, bleach 2 h after dose, drug vs. recovery control, read-out: Percent Inhibition at 2 Hours, Avg. % Inhibition) of 100% and an activity at 0.03 mg/kg ([3]; Mus musculus, BALB/c mice, single oral dose 0.03 mg/kg, bleach 2 h after dose, read-out: Percent control at 2 Hours (Avg. % Inhibition)) of 105%. For the same compound, the activity at 0.1 mg/kg ([3]; Mus musculus, BALB/c mice, single oral dose 0.1 mg/kg, bleach 2 h after dose, read-out: Percent control at 2 Hours (Avg. % Inhibition)) was 124%, the activity at 0.5 mg/kg ([3]; Mus musculus, BALB/c mice, single oral dose 0.5 mg/kg, bleach 2 h after dose, read-out: Percent control at 2 Hours (Avg. % Inhibition)) was 58.6% and the activity at 1 mg/kg ([3]; Mus musculus, BALB/c mice, single oral dose 1 mg/kg, bleach 2 h after dose, read-out: Percent control at 2 Hours (Avg. % Inhibition)) was 29.8%. For the same compound, the activity at 3 mg/kg ([3]; Mus musculus, BALB/c mice, single oral dose 3 mg/kg, bleach 2 h after dose, read-out: Percent control at 2 Hours (Avg. % Inhibition)) was 0% and the “dose showing nearly 100% inhibition” value ([3]; dose response experiment, 2 h) was 3.0 mg/kg.

With NCC[C@@H](O)c1cccc(NCC2CCCCC2)c1 [reference compound] the inhibition at 1 mg/kg ([1]; 4 h) was 96%.
